The test concerns the target T1, Bombyx mori Gr9 (BmGr9) (Bombyx mori, UniProt B3GTD7).
T1 construct: N-terminally Twin-Strep-tagged BmGr9, homotetramer
T1 sequence (B3GTD7 1-449): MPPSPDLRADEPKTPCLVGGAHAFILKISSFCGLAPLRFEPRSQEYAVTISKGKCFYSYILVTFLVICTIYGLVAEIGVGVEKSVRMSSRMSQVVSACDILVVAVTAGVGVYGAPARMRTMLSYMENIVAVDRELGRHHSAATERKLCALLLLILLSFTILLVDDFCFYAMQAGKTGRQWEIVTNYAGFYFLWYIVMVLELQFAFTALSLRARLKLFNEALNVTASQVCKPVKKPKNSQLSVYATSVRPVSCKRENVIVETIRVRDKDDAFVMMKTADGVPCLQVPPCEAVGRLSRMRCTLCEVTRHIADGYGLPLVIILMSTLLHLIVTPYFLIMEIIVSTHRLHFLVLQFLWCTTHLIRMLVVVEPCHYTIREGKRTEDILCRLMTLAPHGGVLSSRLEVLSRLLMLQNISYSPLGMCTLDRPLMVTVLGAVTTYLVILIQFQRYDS
Description: cryo-EM structure ([…] Å) with […] D-fructose; EC50 by two-electrode voltage clamp in Xenopus oocytes. The class given is cell-based. Background: In two-electrode clamp one electrode senses voltage and the other passes current.

pEC50: −log10 of the molar value.

As for `OCC1(O)OC[C@@H](O)[C@@H](O)[C@@H]1O` (stereo partly drawn) [D-fructose], the pEC50 (commonly −log10 of the EC50, conventionally taken in molar units) is 1.66.

Source of the values: paper PMC11100771, “Structural basis of ligand specificity and channel activation in an insect gustatory receptor” (Cell reports, 2024).
